Experimental data taken from ChEMBL document CHEMBL1137775, “Structure-based design of a benzodiazepine scaffold yields a potent allosteric inhibitor of hepatitis C NS5B RNA polymerase” (J Med Chem, 2009).

Experiments:
[1] = tested on: Hepatitis C virus; test: Inhibition of HCV 1b con1 isolate recombinant NS5B Cdelta21 RNA dependent RNA polymerase-mediated primer-dependent transcription by SPA; set-up: species or system Hepacivirus hominis
[2] = tested on: Hepatitis C virus; test: Antiviral activity against HCV 1b having NS5B E1202G/T1280I/K1846 mutation infected in human hepatoma cells after 3 days by replicon luciferase assay; format: functional, organism-based, Hepacivirus hominis; settings: genotype 1b, 72 h
[3] = tested on: Hepatitis C virus; test: Binding affinity to HCV 1b con1 isolate recombinant NS5B Cdelta21 RNA dependent RNA polymerase overexpressed in Escherichia coli BL21(DE3) by surface plasmon resonance experiment; set-up: species or system Hepacivirus hominis

`Cc1cccc(C(=O)N2c3cccc(O)c3NC3=C(C2c2ccc(OCc4ccccc4)cc2F)S(=O)(=O)CC(C)(C)C3)n1` (racemic) showed an IC50 [1] of 120 nM and an EC50 [2] of 52 nM.
`Cc1cccc(C(=O)N2c3cccc(O)c3NC3=C([C@H]2c2ccc(OCc4ccccc4)cc2F)S(=O)(=O)CC(C)(C)C3)n1` showed an IC50 [1] of 6700 nM and an EC50 [2] of 4800 nM.
In the case of `Cc1cccc(C(=O)N2c3cccc(O)c3NC3=C([C@@H]2c2ccc(OCc4ccccc4)cc2F)S(=O)(=O)CC(C)(C)C3)n1`, the IC50 [1] is reported as 26 nM and the EC50 [2] is reported as 29 nM.
For `Cc1cccc(C(=O)N2c3cccc(O)c3NC3=C(C(=O)CC(C)(C)C3)[C@@H]2c2ccc(OCc3ccccc3)cc2F)n1`, the Kd [3] was 15 nM, the IC50 [1] was 74 nM and the EC50 [2] was 400 nM.
For `CC(=O)N1c2cccc(O)c2NC2=C(C(=O)CC(C)(C)C2)[C@@H]1c1ccc(OCc2ccccc2)cc1Cl`, the EC50 [2] was 1200 nM.
